Assay results from US20110015198A1, “DIARYLMETHYLAMIDE DERIVATIVE HAVING MELANIN-CONCENTRATING HORMONE RECEPTOR ANTAGONISM” (BANYU PHARMACEUTICAL CO., INC., priority 2008, published 2011).

The compounds below were run against T1, human MCH-1R (Homo sapiens, UniProt Q99705) (assay: MCH binding inhibition test). Conditions: membrane samples from MCH-1R expressing CHO-K1 cells, 50 pM [125I]MCH, 25° C., one hour; read-out: IC50 (nM); 50% inhibition concentration (IC50 value) for specific [125I]MCH binding.
T1 construct: expressed in transfected cells; host or cells: CHO-K1 (American Type Culture Collection), plasmid vector pEF/myc/cyto
T1 sequence (Q99705 whole entry): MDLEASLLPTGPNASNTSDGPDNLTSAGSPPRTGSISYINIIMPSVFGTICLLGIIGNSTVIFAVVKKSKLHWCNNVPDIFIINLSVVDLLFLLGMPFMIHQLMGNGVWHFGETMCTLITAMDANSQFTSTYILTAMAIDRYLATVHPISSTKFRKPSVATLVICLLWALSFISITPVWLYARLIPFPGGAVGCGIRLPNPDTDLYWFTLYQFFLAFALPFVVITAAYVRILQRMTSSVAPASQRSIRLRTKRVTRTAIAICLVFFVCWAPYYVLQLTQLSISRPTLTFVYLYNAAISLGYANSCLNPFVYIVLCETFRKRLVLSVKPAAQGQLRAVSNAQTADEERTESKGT
Source text: Pharmacological test example: MCH binding inhibition test A cDNA sequence encoding human MCH-1R [FEBS Letters, Vol. 398, 253 (1996); Biochimica et Biophisica Acta, Vol. 1401, 216 (1998)] was cloned to a plasmid vector pEF/myc/cyto (manufactured by Invitrogen). The obtained expression vector was transfected to a host cell CHO-K1 (American Type Culture Collection) using Lipofectamine Plus reagent (manufactured by Life Technology) to provide MCH-1R expression cells.
Membrane samples prepared from the MCH-1R expression cells were incubated with a test compound and 50 pM [^125I]MCH (manufactured by NEN) in an assay buffer (50 mM Tris buffer containing 10 mM magnesium chloride, 2 mM ethylenediamine tetraacetate, 0.01% bacitracin, and 0.2% bovine serum albumin; pH 7.4) at 25° C. for one hour, followed by filtration through a glass filter GF/C (manufactured by Wattman). The glass filter was washed with 50 mM Tris buffer (pH 7.4) containing 10 mM magnesium chloride, 2 mM ethylenediamine tetraacetate, and 0.04% Tween-20, and then the radioactivity on the glass filter was determined Non-specific binding was measured in the presence of 1 μM human MCH, and, with respect to each test compound, 50% inhibition concentration (IC50 value) for specific [^125I]MCH binding was determined.

Structure (SMILES) | IC50
O=C1C(F)CCN1C(c1ccc(CN2CCC3(CC2)OCc2ccncc23)cc1)c1ccc(F)c(F)c1 (single isomer, unassigned) [Example 2-5, (3R)— or (3S)—[(R)— or (S)-1-{(3,4-difluorophenyl)[4-(1H,1′H-spiro[furo[3,4-c]pyridine-3,4′-piperidin]-1′-ylmethyl)phenyl]methyl}]-3-fluoropyrrolidin-2-one] | 0.18 nM
Cn1cc2c(cc1=O)C1(CCN(Cc3ccc(C(c4ccc(F)c(F)c4)N4CCCS4(=O)=O)cc3)CC1)OC2 (centres unmarked) [Example 1-20, 1′-{4-[(3,4-difluorophenyl)(1,1-dioxideisothiazolidin-2-yl)methyl]benzyl}-5-methyl-3,5-dihydro-6H-spiro[furo[3,4-c]pyridine-1,4′-piperidin]-6-one] | 2.9 nM
CN(C(=O)C(C)(C)O)C(c1ccc(F)c(F)c1)c1ccc(CN2CCC(c3ccc(F)nc3)CC2)cn1 (single isomer, unassigned) [Example 1-37, (R)— or (S)—N-[(3,4-difluorophenyl)(5-{[4-(6-fluoropyridin-3-yl)piperidin-1-yl]methyl}pyridin-2-yl)methyl]-2-hydroxy-N,2-dimethylpropanamide] | 17 nM
CC(NC(=O)C(F)F)(c1ccc(F)c(F)c1)c1ccc(CN2CCC(c3ccc(F)nc3)CC2)cn1 (single isomer, unassigned) [Example 1-58, (R)— or (S)—N-[1-(3,4-difluorophenyl)-1-(5-{[4-(6-fluoropyridin-3-yl)piperidin-1-yl]methyl}pyridin-2-yl)ethyl]-2,2-difluoroacetamide] | 1.7 nM
O=C1CCCN1C(c1ccc(CN2CCC3(CC2)OCc2ccncc23)cc1)c1ccc(F)c(F)c1 (centres unmarked) [Example 2-1, 1-{(3,4-difluorophenyl)[4-(1H,1′H-spiro[furo[3,4-c]pyridine-3,4′-piperidin]-1′-ylmethyl)phenyl]methyl}pyrrolidin-2-one] | 0.26 nM
